System: S.D. line male rats
Assay: Antianxiety effect, water drinking under punishment (Vogel)
Assay type: in vivo, rat
Parameters: Antianxiety effect / Antianxiety effect, longevity: unit not given here
Settings: for change in vivo at 20 mg/kg: Rattus norvegicus, po, read-out: Antianxiety effect, Efficacy
Experimental: Antianxiety test was conducted in accordance with a method adapted from the method of Vogel et al. (Psychopharmacol., 21, 1-7, 1971). Stated more specifically, S.D. line male rats weighing 250-300 g were entirely kept from water for 24 h and then placed in a concrete experimental box. […] The bottom of the box was made of a stainless steel grid, from which electric shock (0.2 mA, 0.5 sec) could be applied to the limbs of rats. The test schedule was as follows: first, the rats were acclimatized to the experimental box and trained for drinking water; this was done for 3 min without electric shock. The quantity of water drunk by the rats was then measured (under non-punishment). Then, the rats were kept from drinking water for 24 h. Thereafter, the quantity of water drunk by each rat was measured (before administration of test compound) under such conditions that an electric shock was applied each time a rat drank one water drop (under punishment).Thirty minutes later, a test drug was administered perorally and after an additional 20 min, the quantity of water drunk by each rat was again measured under punishment (after administration of test compound). The quantity of water drunk by rats will decrease under punishment but it is known that the initial level can be restored by administering an antianxiety agent.
The antianxiety effect of a test compound was calculated by the following formula: [formula]
The procedure of Test Examples 2 and 3 were repeated except that test compounds were administered perorally in a dose of 10 mg/kg.
The procedures of Test Example 2 and 3 were repeated, except that test compounds were administered perorally in a dose of 20 mg/kg to check the longevity of their antianxiety and antidepressant effects for 0.5, 2 and 4 h.

[1] = peroral 20 mg/kg, 0.5 h after administration
[2] = peroral 20 mg/kg, 2.0 h after administration
[3] = peroral 20 mg/kg, 4.0 h after administration

Row | Structure (SMILES) | change in vivo at 20 mg/kg (peroral 20 mg/kg) [%] | Antianxiety effect (peroral 10 mg/kg) | Antianxiety and antidepressant effects (peroral 10 mg/kg, Table 6) | Antianxiety effect (peroral 20 mg/kg) | Antianxiety effect, longevity [1] | Antianxiety effect, longevity [2] | Antianxiety effect, longevity [3]
1 | Cc1cccc2c1OC(CNCCNC(=O)C13CC4CC(CC(C4)C1)C3)CO2 (centres unmarked) [Compound 1, N-{[2-(8-methyl-1,4-benzodioxan-2-ylmethyl)amino]ethyl}tricyclo[3,3,1,1^3, ^7]decane-1-carboxyamide] | 85.4 ± 10.3 | 42.4 ± 2.1 | superiority | better effects than MDL-73005 | 52.8 | 48.2 | 29.5
2 | O=C(NCCN1CCN(c2ncccn2)CC1)C12CC3CC(CC(C3)C1)C2 [WY-50324, reference compound] | 46.9 ± 6.3 | – | – | – | 57.8 | 24.8 | 11.2
